Where a name gives a salt, the structure may show the parent alone.
System: Helicobacter pylori
Assay: Activity on Helicobacter pylori (MIC, Columbia agar, 4 days growth period)
Type: cell-based
Conditions: Columbia agar (Oxoid), growth period of 4 days; for MIC: Helicobacter pylori, 96 h

| Structure (SMILES) | MIC [µg/mL] | MIC-Value [µg/mL] |
| --- | --- | --- |
| CN(CCCN1CCC(Cc2ccccc2)CC1)c1ccnc(CSc2nc3ccccc3[nH]2)c1Cl [Compound 21, 2-{3-Chloro-4-{N-[3-(4-benzyl-piperidino)-propyl]-N-methylamino}-2-pyridyl}-methylthio-1H-benzimidazole trihydrochloride] | < 1 | – |
| COc1cc2c(cc1OC)CN(CCCN(C)c1ccnc(CSc3nc4ccccc4[nH]3)c1Cl)CC2 [Compound 20, 2-{3-Chloro-4-{N-[3-(6,7-dimethoxy-1,2,3,4-tetrahydro-2-isoquinolinyl)-propyl]-N-methylamino}-2-pyridyl}-methylthio-1H-benzimidazole trihydrochloride] | < 1 | – |
| CN(CCN1CCN(c2ccccc2)CC1)c1ccnc(CSc2nc3ccccc3[nH]2)c1Cl [Compound 15, 2-{3-Chloro-4-{N-[2-(4-phenylpiperazino)-ethyl]-N-methylamino}-2-pyridyl}-methylthio-1H-benzimidazole hydrochloride] | < 1 | – |
| CN(CCN(C)c1ccnc(CSc2nc3ccccc3[nH]2)c1Cl)Cc1ccco1 [Compound 10, 2-{3-Chloro-4-{N-[2-(N-furfuryl-N-methylamino)ethyl]-N-methylamino}-2-pyridyl}-methylthio-1H-benzimidazole trihydrochloride] | < 1 | – |
| COc1ccccc1N1CCN(CCN(C)c2ccnc(CSc3nc4ccccc4[nH]3)c2Cl)CC1 [Compound 17, 2-{3-Chloro-4-{N-[2-(4-(2-methoxyphenyl)-piperazino)-ethyl]-N-methylamino}-2-pyridyl}-methylthio-1H-benzimidazole trihydrochloride] | < 1 | – |
| CN(CCN(C)c1ccnc(CSc2nc3ccccc3[nH]2)c1Cl)Cc1ccccc1 [Compound 6, 2-{3-Chloro-4-{N-[2-(N-benzyl-N-methylamino)-ethyl]-N-methylamino}-2-pyridyl}-methylthio-1H-benzimidazole trihydrochloride] | < 1 | – |
| CN(CCN1CCC(Cc2ccccc2)CC1)c1ccnc(CSc2nc3ccccc3[nH]2)c1Cl [Compound 12, 2-{3-Chloro-4-{N-[2-[4-benzyl-piperidino)-ethyl]-N-methylamino}-2-pyridyl}-methylthio-1H-benzimidazole] | < 1 | – |
| Cc1c(N(C)CCN(C)Cc2ccco2)ccnc1CSc1nc2ccccc2[nH]1.Cl.Cl.Cl [Compound 4, 2-{3-Methyl-4-{N-{2-[N-(2-furfuryl)-N-methylamino]-ethyl}-N-methylamino}-2-pyridyl}-methylthio-1H-benzimidazole trihydrochloride] | – | < 1 |
| CN(CCN1CCC(c2ccccc2)CC1)c1ccnc(CSc2nc3ccccc3[nH]2)c1Cl [Compound 11, 2-{3-Chloro-4-{N-[2-(4-phenyl-piperidino)-ethyl]-N-methylamino}-2-pyridyl}-methylthio-1H-benzimidazole] | < 1 | – |
| CN(CCN1CCc2ccccc2C1)c1ccnc(CSc2nc3ncccc3[nH]2)c1Cl [Compound 5, 2-{3-Chloro-4-{N-[2-(1,2,3,4-tetrahydro-2-isoquinolinyl)ethyl]-N-methylamino)-2-pyridyl}-methylthio-1H-imidazo[5,4-b]pyridine] | < 1 | – |
| CN(CCCN(C)c1ccnc(CSc2nc3ccccc3[nH]2)c1Cl)Cc1ccccc1 [Compound 19, 2-{3-Chloro-4-{N-[3-(N-benzyl-N-methylamino)propyl]-N-methylamino}-2-pyridyl}-methylthio-1H-benzimidazole trihydrochloride] | < 1 | – |
| CN(CCN1CCN(Cc2ccccc2)CC1)c1ccnc(CSc2nc3ccccc3[nH]2)c1Cl [Compound 16, 2-{3-Chloro-4-{N-[2-(4-benzylpiperazino)-ethyl]-N-methylamino}-2-pyridyl}-methylthio-1H-benzimidazole trihydrochloride] | < 1 | – |
| CCN(CCN(C)c1ccnc(CSc2nc3ccccc3[nH]2)c1Cl)Cc1ccccc1 [Compound 1, 2-{3-Chloro-4-{N-[2-(N-benzyl-N-ethylamino)ethyl]-N-methylamino}-2-pyridyl)-methylthio-1H-benzimidazole trihydrochloride] | < 1 | – |
| CN(CCN1CCc2ccccc2C1)c1ccnc(CSc2nc3ccccc3[nH]2)c1Cl [Compound 2, 2-{3-Chloro-4-{N-[2-(1,2,3,4-tetrahydro-2-isoquinolinyl)ethyl]-N-methylamino}-2-pyridyl}-methylthio-1H-benzimidazole trihydrochloride] | < 1 | – |
| CN(CCc1ccccc1)CCN(C)c1ccnc(CSc2nc3ccccc3[nH]2)c1Cl [Compound 9, 2-{3-Chloro-4-{N-[2-(N-methyl-N-phenethylamino)-ethyl]-N-methylamino}-2-pyridyl}-methylthio-1H-benzimidazole trihydrochloride] | < 1 | – |
| CN(CCN1CCCCC1)c1ccnc(CSc2nc3ccccc3[nH]2)c1Cl [Compound 13, 2-{3-Chloro-4-[N-(2-piperidinoethyl)-N-methylamino]-2-pyridyl}-methylthio-1H-benzimidazole] | < 1 | – |
| COc1cc2c(cc1OC)CN(CCN(C)c1ccnc(CSc3nc4ccccc4[nH]3)c1Cl)CC2 [Compound 14, 2-{3-Chloro-4-{N-[2-(6,7-dimethoxy-1,2,3,4-tetrahydro-2-isoquinolinyl)ethyl]-N-methylamino}-2-pyridyl}-methylthio-1H-benzimidazole] | < 1 | – |
| CN(CCCN1CCc2ccccc2C1)c1ccnc(CSc2nc3ccccc3[nH]2)c1Cl [Compound 18, 2-{3-Chloro-4-{N-[3-(1,2,3,4-tetrahydro-2-isoquinolinyl)-propyl]-N-methylamino}-2-pyridyl}-methylthio-1H-benzimidazole trihydrochloride] | < 1 | – |

Source: US5668131A, “Substituted aminoalkylaminopyridines” (BYK Gulden Lomberg Chemische Fabrik GmbH, priority 1993, dated 1997)
